The results in this text go back to patent publication US20260166039A1 (SCHRÖDINGER, INC., priority 2022, published 2026).

T1 sequence (P30291 299-569 limits assumed): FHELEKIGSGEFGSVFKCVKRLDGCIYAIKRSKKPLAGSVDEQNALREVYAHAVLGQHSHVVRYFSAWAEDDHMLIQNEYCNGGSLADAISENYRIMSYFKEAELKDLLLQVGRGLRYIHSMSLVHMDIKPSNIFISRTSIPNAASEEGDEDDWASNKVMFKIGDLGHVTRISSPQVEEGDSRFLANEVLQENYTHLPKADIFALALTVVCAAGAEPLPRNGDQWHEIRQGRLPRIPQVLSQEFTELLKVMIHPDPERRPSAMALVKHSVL

The first experiment concerns the target T1, Wee1 kinase domain (Homo sapiens, UniProt P30291).
T1 construct: Wee1 kinase domain was purchased from Carna (catalog #05-177); purchased Carna 05-177
In words: Wee1 Kinase Biochemical Assay (ADP-Glo). Conditions: Wee1 kinase domain, 15 uM ATP, ADP-Glo. On the procedure:
Wee1 Kinase Biochemical Assay Protocol
Wee1 kinase domain was purchased from Carna (catalog #05-177). Wee1 kinase activity was determined with Poly(Lys,Tyr 4:1) hydrobromide as a substrate (Sigma-Aldrich) and by measuring ADP production using the ADP-Glo Kinase Assay kit (Promega) following the manufacturer's instructions. The kinase reaction was performed using the following conditions:
Buffer: 40 mM Tris-HCl, 20 mM magnesium chloride, supplemented with 0.1 mg/mL bovine serum albumin and 2 mM DTT. The final reaction mix contained 1 nM Wee1 enzyme, 15 uM ATP, and 2 ng/mL Poly(Lys,Tyr 4:1) hydrobromide substrate. The reaction time was 4 hours at 25° C.
The ADP-Glo signal was measured using the Envision plate reader and the percentage inhibition of kinase activity calculated for each inhibitor tested. Percent inhibition of Wee1 kinase activity was calculated based on the following formula.
[formula] • SSample: the signal of compounds • SHigh Ctrl: the signal of high control (DMSO) • SLow Ctrl: the signal of low control (positive control Wee1 inhibitor at saturating concentration)
(ADP-Glo turns the ADP formed in a reaction into a luminescent signal.)
The term IC50 denotes the concentration at which inhibition is half-maximal. High values mean lower potency, low ones higher potency. Turning to `CNCc1cccc(N2c3nc(Nc4ccc(N5C[C@@H](C)O[C@@H](C)C5)cc4)ncc3[C@]3(C)COC(C)(C)C[C@H]23)n1` [Example 19, (4bS,8aS)-N-(4-((2S,6R)-2,6-dimethylmorpholino)phenyl)-4b,7,7-trimethyl-9-(6-((methylamino)methyl)pyridin-2-yl)-4b,5,7,8,8a,9-hexahydropyrano[3′,4′:4,5]pyrrolo[2,3-d]pyrimidin-2-amine], the half-maximal inhibitory concentration (IC50) lay within 100 to 1000 nM.

As to `CN[C@@H](Cc1ccc(Nc2ncc3c(n2)N(c2cccc(N4C(=O)OC[C@@H]4C)n2)[C@H]2CC(C)(C)OC[C@@]32C)cc1)C(=O)O` (single isomer, unassigned) [Example 320], the IC50 fell in the range of 100 to 1000 nM.

`CN1CCC(c2ccc(Nc3ncc4c(n3)N(c3cccc(N=S(C)(C)=O)n3)[C@@H]3CC(C)(C)OC[C@]43C)cc2)CC1` (single isomer, unassigned) [Example 111] came in with a half-inhibitory concentration (IC50) of 10 to 100 nM.

In the case of `C[C@H]1COC(=O)N1c1cccc(N2c3nc(Nc4cnn(C5CCN(C)CC5)c4)ncc3[C@]3(C)COC(C)(C)C[C@H]23)n1` (single isomer, unassigned) [Example 242], the IC50 was 10 to 100 nM.

Turning to `C[C@H]1COC(=O)N1c1cccc(N2c3nc(Nc4ccc(N5CCNCC5)cc4)ncc3[C@]3(C)COC(C)(C)C[C@H]23)n1` (single isomer, unassigned) [Example 261], the IC50 fell in the range of 10 to 100 nM.

For the compound `CC1(C)C[C@@H]2N(c3cccc(N=S(C)(C)=O)n3)c3nc(Nc4ccc([C@H]5CCCN5)nc4)ncc3[C@]2(C)CO1` (single isomer, unassigned) [Example 211], the IC50 was 10 to 100 nM.

In the case of `C[C@H]1COC(=O)N1c1cccc(N2c3nc(Nc4ccc(C5(C)COC5)cc4)ncc3[C@]3(C)COC(C)(C)C[C@H]23)n1` (single isomer, unassigned) [Example 302], the IC50 was 100 to 1000 nM.

On to `C[C@H]1COC(=O)N1c1cccc(N2c3nc(Nc4ccc(O[C@H]5CCNC5)cc4)ncc3[C@]3(C)COC(C)(C)C[C@H]23)n1` (single isomer, unassigned) [Example 328], for which the IC50 lay within 100 to 1000 nM.

For `CN1CC(c2ccc(Nc3ncc4c(n3)N(c3cccc(N=S(C)(C)=O)n3)[C@H]3CC(C)(C)OC[C@@]43C)cn2)C1` (single isomer, unassigned) [Example 193], the half-inhibitory concentration (IC50) lay within 100 to 1000 nM.

As for `CC1(C)C[C@H]2N(c3cccc(N=S(C)(C)=O)n3)c3nc(Nc4ccc5ncnn5c4)ncc3[C@@]2(C)CO1` (single isomer, unassigned) [Example 384], the IC50 was less than 10 nM.

Regarding `CNCc1ccc(Nc2ncc3c(n2)N(c2cccc(N4C(=O)OC[C@@H]4C)n2)[C@H]2CC(C)(C)OC[C@@]32C)cc1` (single isomer, unassigned) [Example 359], the half-inhibitory concentration (IC50) was 10 to 100 nM.

On to `Cc1cc(Nc2ncc3c(n2)N(c2cccc(N=S(C)(C)=O)n2)[C@H]2CC(C)(C)OC[C@@]32C)ccc1C1CCN(C)CC1` (single isomer, unassigned) [Example 103], for which the half-maximal inhibitory concentration (IC50) fell in the range of 10 to 100 nM.

In turn, `Cc1cc(Nc2ncc3c(n2)N(c2cccc(N=S(C)(C)=O)n2)[C@H]2CC(C)(C)OC[C@@]32C)ccc1[C@H]1CCN(C)C1` (single isomer, unassigned) [Example 148] registered a concentration for half-maximal inhibition (IC50) of 10 to 100 nM.

Regarding `Cc1cc(Nc2ncc3c(n2)N(c2cccc(N=S(C)(C)=O)n2)[C@H]2CC(C)(C)OC[C@@]32C)ccc1[C@H]1COCCN1` (single isomer, unassigned) [Example 115], the half-maximal inhibitory concentration (IC50) was in the range of 10 to 100 nM.

`CN1Cc2cc(Nc3ncc4c(n3)N(c3cccc(N=S(C)(C)=O)n3)[C@H]3CC(C)(C)OC[C@@]43C)ccc2C(C)(C)C1` (single isomer, unassigned) [Example 136] gave an IC50 of 10 to 100 nM.

In turn, `CNCc1cccc(N2c3nc(Nc4ccc(N5C(=O)CC[C@@H]5C)cc4)ncc3[C@@]3(C)COC(C)(C)C[C@@H]23)n1` (single isomer, unassigned) [Example 28] came in with an IC50 of less than 10 nM.

`C[C@H]1COC(=O)N1c1cccc(N2c3nc(Nc4ccc(O[C@H]5CCNC5)nc4)ncc3[C@]3(C)COC(C)(C)C[C@H]23)n1` (single isomer, unassigned) [Example 284] displayed a half-maximal inhibitory concentration (IC50) of 10 to 100 nM.

Regarding `C[C@H]1COC(=O)N1c1cccc(N2c3nc(Nc4ccc(N5CCN(C)CC5)nn4)ncc3[C@]3(C)COC(C)(C)C[C@H]23)n1` (single isomer, unassigned) [Example 248], the 50% inhibitory concentration (IC50) lay in the range of 100 to 1000 nM.

Turning to `CN1CCc2ccc(Nc3ncc4c(n3)N(c3cccc(N=S(C)(C)=O)n3)[C@H]3CC(C)(C)OC[C@@]43C)cc2C1` (single isomer, unassigned) [Example 110], the IC50 was 10 to 100 nM.

Staying with this experiment, now noted: class symbols; 1 nM Wee1 enzyme, 15 uM ATP, 4 hours at 25° C.
For the compound `CC1(C)C[C@@H]2N(c3cccc([C@H]4CCNC4)n3)c3nc(Nc4ccc(N5CCOCC5)cc4)ncc3[C@]2(C)CO1` (single isomer, unassigned) [Example 540], the IC50 lay within 10 to 100 nM.

`CN1CC[C@@H](c2ccc(Nc3ncc4c(n3)N(c3cccc(N5CCCC5=O)n3)[C@H]3CC(C)(C)OC[C@@]43C)cc2)C1` [Example 643, 1-(6-((4bS,8aS)-4b,7,7-trimethyl-2-((4-((S)-1-methylpyrrolidin-3-yl)phenyl)amino)-4b,7,8,8a-tetrahydropyrano[3′,4′:4,5]pyrrolo[2,3-d]pyrimidin-9(5H)-yl)pyridin-2-yl)pyrrolidin-2-one] yielded an IC50 of 10 to 100 nM.

Compound `CNCc1cccc(N2c3nc(Nc4cccc(N5CCOCC5)c4)ncc3[C@]3(C)COC(C)(C)C[C@H]23)n1` (single isomer, unassigned) [Example 469] came in with an IC50 of 100 to 1000 nM.

For the compound `CN1[C@@H]2C[C@H]1CN(c1ccc(Nc3ncc4c(n3)N(c3cccc(N5CCOC5=O)n3)[C@H]3CC(C)(C)OC[C@@]43C)cc1)C2` [Example 701, 3-(6-((4bS,8aS)-4b,7,7-trimethyl-2-((4-((1R,5S)-6-methyl-3,6-diazabicyclo[3.1.1]heptan-3-yl)phenyl)amino)-4b,7,8,8a-tetrahydropyrano[3′,4′:4,5]pyrrolo[2,3-d]pyrimidin-9(5H)-yl)pyridin-2-yl)oxazolidin-2-one], the IC50 fell in the range of 10 to 100 nM.

For `CN1CC[C@H](Oc2ccc(Nc3ncc4c(n3)N(c3cccc(N5CCOC5=O)n3)[C@H]3CC(C)(C)OC[C@@]43C)cc2)C1` [Example 614, 3-(6-((4bS,8aS)-4b,7,7-trimethyl-2-((4-(((S)-1-methylpyrrolidin-3-yl)oxy)phenyl)amino)-4b,7,8,8a-tetrahydropyrano[3′,4′:4,5]pyrrolo[2,3-d]pyrimidin-9(5H)-yl)pyridin-2-yl)oxazolidin-2-one], the IC50 lay within 100 to 1000 nM.

With `CNCc1cccc(N2c3nc(Nc4ccc(C(C)(C)C(=O)O)cc4)ncc3[C@]3(C)COC(C)(C)C[C@H]23)n1` (single isomer, unassigned) [Example 457], the 50% inhibitory concentration (IC50) is not below 1000 nM.

`CNCc1cccc(N2c3nc(Nc4ccc(-c5cnn(C)c5)nc4)ncc3[C@]3(C)COC(C)(C)C[C@H]23)n1` (single isomer, unassigned) [Example 459] yielded a 50% inhibitory concentration (IC50) of 100 to 1000 nM.

`CC1(C)C[C@@H]2N(c3cccc([C@H]4CNCCO4)n3)c3nc(Nc4ccc(N5CCOCC5)cc4)ncc3[C@]2(C)CO1` [Example 738, (4bS,8aS)-4b,7,7-trimethyl-9-(6-((R)-morpholin-2-yl)pyridin-2-yl)-N-(4-morpholinophenyl)-4b,5,7,8,8a,9-hexahydropyrano[3′,4′:4,5]pyrrolo[2,3-d]pyrimidin-2-amine]: the IC50 fell in the range of 10 to 100 nM.

Turning to `CNCc1cccc(N2c3nc(Nc4ccc([C@H]5CCNC5)cc4)ncc3[C@]3(C)COC(C)(C)C[C@H]23)n1` (single isomer, unassigned) [Example 451], the IC50 was in the range of 100 to 1000 nM.

Consider `CN[C@@H](C)c1cc(C)nc(N2c3nc(Nc4ccc(N5CCOCC5)cc4)ncc3[C@]3(C)COC(C)(C)C[C@H]23)c1` (single isomer, unassigned) [Example 559], for which the 50% inhibitory concentration (IC50) is not below 1000 nM.

As for `C[C@H]1CN(c2cccc(N3c4nc(Nc5ccc(N6CCN(C)CC6)cc5)ncc4[C@]4(C)COC(C)(C)C[C@H]34)n2)C(=O)O1` (single isomer, unassigned) [Example 598], the half-inhibitory concentration (IC50) is 100 to 1000 nM.

With `CC1(C)C[C@@H]2N(c3ccc4c(n3)[C@](C)(N)CC4)c3nc(Nc4ccc(N5CCOCC5)cc4)ncc3[C@]2(C)CO1` (single isomer, unassigned) [Example 563], the IC50 fell in the range of 100 to 1000 nM.

Turning to `C[C@H]1CCC(=O)N1c1cccc(N2c3nc(Nc4cnn(C5CCN(C)CC5)c4)ncc3C3(C)COC(C)(C)CC23)n1` (stereo in doubt) [Example 555, (S)-5-methyl-1-(6-((4bS,8aS)-4b,7,7-trimethyl-2-((1-(1-methylpiperidin-4-yl)-1H-pyrazol-4-yl)amino)-4b,7,8,8a-tetrahydropyrano[3′,4′:4,5]pyrrolo[2,3-d]pyrimidin-9(5H)-yl)pyridin-2-yl)pyrrolidin-2-one], the half-maximal inhibitory concentration (IC50) is 10 to 100 nM.

Consider `C[C@H]1CCC(=O)N1c1cccc(N2c3nc(Nc4ccc(N5CCN(C)CC5)cc4)ncc3[C@]3(C)COC(C)(C)C[C@H]23)n1` (single isomer, unassigned) [Example 582], for which the half-maximal inhibitory concentration (IC50) fell in the range of 100 to 1000 nM.

The compound `CC1(C)C[C@@H]2N(c3cccc([C@H]4COCCN4)n3)c3nc(Nc4ccc(N5CCOCC5)cc4)ncc3[C@]2(C)CO1` [Example 732, (4bS,8aS)-4b,7,7-trimethyl-9-(6-((S)-morpholin-3-yl)pyridin-2-yl)-N-(4-morpholinophenyl)-4b,5,7,8,8a,9-hexahydropyrano[3′,4′:4,5]pyrrolo[2,3-d]pyrimidin-2-amine] came in with an IC50 of 10 to 100 nM.
